Measured values from patent US10975055B2, “Inhibitors of interleukin-1 receptor-associated kinases and uses thereof” (Dana-Farber Cancer Institute, Inc., priority 2016, dated 2021).
Read-outs that look alike come from different tables or passages of the source.

Key:
IRAK4 = biological target: T1, IRAK4 (Homo sapiens, UniProt Q9NWZ3); assay: IRAK4 Z-lyte kinase assay (FRET peptide substrate); format: biochemical
T1 sequence (Q9NWZ3 1-460): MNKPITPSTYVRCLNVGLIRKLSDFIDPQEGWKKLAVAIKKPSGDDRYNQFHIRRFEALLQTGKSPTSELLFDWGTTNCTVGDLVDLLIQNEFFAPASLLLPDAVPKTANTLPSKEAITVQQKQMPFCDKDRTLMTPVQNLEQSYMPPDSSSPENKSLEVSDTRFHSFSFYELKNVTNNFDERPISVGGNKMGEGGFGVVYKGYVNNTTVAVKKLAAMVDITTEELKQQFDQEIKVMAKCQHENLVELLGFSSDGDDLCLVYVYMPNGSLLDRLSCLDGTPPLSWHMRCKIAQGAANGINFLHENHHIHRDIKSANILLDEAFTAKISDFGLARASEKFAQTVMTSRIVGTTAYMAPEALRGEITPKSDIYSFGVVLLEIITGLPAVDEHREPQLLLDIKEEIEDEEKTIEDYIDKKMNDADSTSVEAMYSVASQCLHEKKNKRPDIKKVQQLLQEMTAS
Description: (§1) Select compounds described herein were evaluated for structure-activity analyses. For IRAK1, the following Alexa kinase assay procedure was followed: in the absence of an inhibitor, ADP formed by a kinase reaction will displace an Alexa Fluor 647 dye-labeled ADP tracer from an Eu3+-labeled anti-ADP antibody, resulting in a decrease in the time-resolved fluorescence resonance energy transfer (TR-FRET) signal. In the presence of an inhibitor, the amount of ADP formed by the kinase reaction is reduced, and the resulting intact antibody-tracer interaction produces a high TR-FRET signal. For IRAK4, the following Z-lyte kinase assay procedure was followed: phosphorylation-dependent protease susceptibility of a double-labeled peptide substrate is detected using fluorescence resonance energy transfer (FRET).

[1] = system: MYD88 mutated WM and ABC DLBCL cells; assay: Antiproliferative effects, single agent; format: cell-based
[2] = system: Waldenstrom's, DLBCL, and Burkitt Lymphoma cell lines; assay: Cellular data for covalent IRAK1 inhibitors: cell killing; format: cell-based
In vivo PK studies = conditions: dosed IV
[3] = system: kinome (off-targets YSK4 and MEK3); assay: Kinome selectivity (kinome tree); format: biochemical
IRAK1 cysteine 302 = IRAK1 cysteine 302 (Homo sapiens, UniProt P51617); assay: Mass spec labelling studies; format: binding
Sequence of IRAK1 cysteine 302 (P51617 whole entry): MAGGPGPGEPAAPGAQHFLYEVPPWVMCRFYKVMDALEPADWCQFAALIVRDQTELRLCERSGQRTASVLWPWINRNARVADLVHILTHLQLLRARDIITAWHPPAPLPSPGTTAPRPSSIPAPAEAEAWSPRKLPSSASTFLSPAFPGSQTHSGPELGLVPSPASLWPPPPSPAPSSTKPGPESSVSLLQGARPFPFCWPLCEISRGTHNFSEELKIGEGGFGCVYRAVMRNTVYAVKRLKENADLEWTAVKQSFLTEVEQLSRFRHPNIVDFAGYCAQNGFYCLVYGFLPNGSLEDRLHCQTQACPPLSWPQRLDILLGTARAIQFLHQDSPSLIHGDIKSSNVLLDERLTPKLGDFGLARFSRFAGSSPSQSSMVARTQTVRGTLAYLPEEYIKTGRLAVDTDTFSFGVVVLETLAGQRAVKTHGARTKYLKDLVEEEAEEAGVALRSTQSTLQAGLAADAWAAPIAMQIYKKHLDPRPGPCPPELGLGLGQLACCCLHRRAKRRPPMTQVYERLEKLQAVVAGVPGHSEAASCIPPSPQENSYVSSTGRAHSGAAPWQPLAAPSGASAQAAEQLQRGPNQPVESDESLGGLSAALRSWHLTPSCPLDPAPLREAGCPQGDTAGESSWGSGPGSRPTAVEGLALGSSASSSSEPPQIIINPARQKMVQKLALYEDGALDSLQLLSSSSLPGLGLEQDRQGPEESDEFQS

NF-κB activation = NF-κB activation under combination with Ibrutinib; format: cell-based
[4] = system: WM patients' bone marrow LPCs; assay: Tumor cell killing in WM patients' bone marrow LPCs; format: cell-based, human; conditions: combination with BTK inhibitor Ibrutinib
[5] = system: MYD88 mutated WM and ABC-DLBCL cells; assay: Synergism evaluation with Ibrutinib: tumor cell killing; format: cell-based; conditions: for Combination Index (CI): synergism evaluation with Ibrutinib
IRAK1 = IRAK1 (Homo sapiens, UniProt P51617); assay: IRAK1 Alexa kinase assay (TR-FRET, ADP tracer); format: biochemical
Sequence of IRAK1 (P51617 whole entry): as above
Description: as §1

**Q.** For C=CC(=O)Nc1cccc(C(=O)Nc2ccc(NC(=O)c3cccc(-c4ccn[nH]4)n3)cc2)c1 [JH-X-119-01], which IC50 (IRAK4; Table 1, read-out: IC50 IRAK4) is on record?
**A.** > 10000 nM

**Q.** What about the “inhibition of IRAK4” value (IRAK4; at concentrations up to 10 μM) of the same compound?
**A.** no inhibition

**Q.** And the antiproliferative effects [1]?
**A.** antiproliferative effects

**Q.** What about the “cell killing ED50” value [2] of the same compound?
**A.** micromolar

**Q.** And the Cmax (In vivo PK studies)?
**A.** 9.95 µM

**Q.** What about the clearance (In vivo PK studies) of the same compound?
**A.** 18.8 mL/min/kg

**Q.** And the half-life (In vivo PK studies)?
**A.** 1.61 h

**Q.** And the “kinome selectivity: off-target inhibition” value [3]?
**A.** only two kinases, YSK4 and MEK3

**Q.** What about the “labelling of IRAK1 (mass spec)” value (IRAK1 cysteine 302) of the same compound?
**A.** irreversibly labelled IRAK1 at cysteine 302

**Q.** What about the “NF-κB activation, combination with Ibrutinib” value (NF-κB activation) of the same compound?
**A.** suppression

**Q.** And the “tumor cells killing in WM patients' bone marrow LPCs” value [4]?
**A.** more robust tumor cells killing

**Q.** And the “tumor cell killing, combination with Ibrutinib” value ([5]; combination with Ibrutinib, MYD88 mutated WM and ABC-DLBCL cells)?
**A.** synergistic tumor cell killing

**Q.** What about the “Combination Index (CI)” value [5] of the same compound?
**A.** < 1.0

**Q.** And the IC50 (IRAK1; read-out: IRAK1 IC50)?
**A.** 9.3 nM

**Q.** For C=CC(=O)Nc1ccc(C(=O)Nc2ccc(NC(=O)c3cccc(-c4ccn[nH]4)n3)cc2)cc1 [JH-X-119-02], which IC50 (IRAK4; Table 1, read-out: IC50 IRAK4) is on record?
**A.** > 10000 nM

**Q.** What about the IC50 (IRAK1; Table 1, read-out: IC50 IRAK1) of the same compound?
**A.** 47 nM

**Q.** With C=CC(=O)Nc1ccc(C(=O)Nc2cccc(NC(=O)c3cccc(-c4ccn[nH]4)n3)c2)cc1 [JH-X-119-03] as the compound, how does the IC50 (IRAK1; Table 1, read-out: IC50 IRAK1) read?
**A.** 55 nM

**Q.** Which IC50 (IRAK4; Table 1, read-out: IC50 IRAK4) does the source give for C=CC(=O)Nc1cccc(C(=O)Nc2cccc(NC(=O)c3cccc(-c4ccn[nH]4)n3)c2)c1 [JH-X-119-04] here?
**A.** > 10000 nM

**Q.** And the IC50 (IRAK1; Table 1, read-out: IC50 IRAK1)?
**A.** 25 nM

**Q.** What does the source list for CCC(=O)Nc1cccc(C(=O)Nc2ccc(NC(=O)c3cccc(-c4ccn[nH]4)n3)cc2)c1 [JH-X-159]?
**A.** IC50 (IRAK4; Table 1, read-out: IC50 IRAK4): > 10000 nM; IC50 (IRAK1; Table 1, read-out: IC50 IRAK1): 259 nM

**Q.** With CN(C)C/C=C/C(=O)Nc1cccc(C(=O)Nc2ccc(NC(=O)c3cccc(-c4ccn[nH]4)n3)cc2)c1 [JH-X-198] as the compound, how does the IC50 (IRAK4; Table 1, read-out: IC50 IRAK4) read?
**A.** > 10000 nM

**Q.** And the “Combination Index (CI)” value [5]?
**A.** < 1.0

**Q.** And the IC50 (IRAK1; Table 1, read-out: IC50 IRAK1)?
**A.** 51 nM

**Q.** For C=CC(=O)N[C@H]1CC[C@H](NC(=O)c2ccc(NC(=O)c3cccc(-c4ccn[nH]4)n3)cc2)CC1 [JH-XII-200-1, N-(4-(((1r,4r)-4-acrylamidocyclohexyl)carbamoyl)phenyl)-6-(1H-pyrazol-5-yl)picolinamide], which IC50 (IRAK4; read-out: IRAK4 IC50) is on record?
**A.** 154 nM

**Q.** And the IC50 (IRAK1; read-out: IRAK1 IC50)?
**A.** 46 nM

**Q.** Which IC50 (IRAK4; read-out: IRAK4 IC50) does the source give for C=CC(=O)N[C@H]1CCC[C@@H](NC(=O)c2ccc(NC(=O)c3cccc(-c4ccn[nH]4)n3)cc2)C1 [JH-XII-200-2, N-(4-(((1R,3S)-3-acrylamidocyclohexyl)carbamoyl)phenyl)-6-(1H-pyrazol-5-yl)picolinamide] here?
**A.** 648 nM

**Q.** What about the IC50 (IRAK1; read-out: IRAK1 IC50) of the same compound?
**A.** 24 nM

**Q.** For C=CC(=O)NC12CC(NC(=O)c3ccc(NC(=O)c4cccc(-c5ccn[nH]5)n4)cc3)(C1)C2 [JH-XII-200-3, N-(4-((3-acrylamidobicyclo[1.1.1]pentan-1-yl)carbamoyl)phenyl)-6-(1H-pyrazol-5-yl)picolinamide], which IC50 (IRAK4; read-out: IRAK4 IC50) is on record?
**A.** 607 nM

**Q.** What about the IC50 (IRAK1; read-out: IRAK1 IC50) of the same compound?
**A.** 51 nM

**Q.** What does the source list for C=CC(=O)N[C@H]1CC[C@H](C(=O)Nc2ccc(NC(=O)c3cccc(-c4ccn[nH]4)n3)cc2)CC1 [JH-XII-205-1, N-(4-((1r,4r)-4-acrylamidocyclohexane-1-carboxamido)phenyl)-6-(1H-pyrazol-5-yl)picolinamide]?
**A.** IC50 (IRAK4; read-out: IRAK4 IC50): 1110 nM; IC50 (IRAK1; read-out: IRAK1 IC50): 88 nM

**Q.** For C=CC(=O)N[C@H]1CCC[C@@H](C(=O)Nc2ccc(NC(=O)c3cccc(-c4ccn[nH]4)n3)cc2)C1 [JH-XII-205-2, N-(4-((1R,3S)-3-acrylamidocyclohexane-1-carboxamido)phenyl)-6-(1H-pyrazol-5-yl)picolinamide], which IC50 (IRAK4; Table 1, read-out: IC50 IRAK4) is on record?
**A.** > 10000 nM

**Q.** What about the IC50 (IRAK4; read-out: IRAK4 IC50) of the same compound?
**A.** > 10000 nM

**Q.** What about the IC50 (IRAK1; read-out: IRAK1 IC50) of the same compound?
**A.** 72 nM

**Q.** With C=CC(=O)Nc1cccc(C(=O)Nc2ccc(NC(=O)c3cccc(-c4cnoc4)n3)cc2)c1 [JH-XIII-80-1, N-(4-(3-acrylamidobenzamido)phenyl)-6-(isoxazol-4-yl)picolinamide] as the compound, how does the IC50 (IRAK4; Table 1, read-out: IC50 IRAK4) read?
**A.** > 10000 nM

**Q.** What about the IC50 (IRAK4; read-out: IRAK4 IC50) of the same compound?
**A.** > 10000 nM

**Q.** What about the IC50 (IRAK1; read-out: IRAK1 IC50) of the same compound?
**A.** 12 nM

**Q.** Which IC50 (IRAK4; Table 1, read-out: IC50 IRAK4) does the source give for C=CC(=O)Nc1cccc(C(=O)Nc2ccc(NC(=O)c3cccc(-c4cnn(C)c4)n3)cc2)c1 [JH-XIII-80-2, N-(4-(3-acrylamidobenzamido)phenyl)-6-(1-methyl-1H-pyrazol-4-yl)picolinamide] here?
**A.** > 10000 nM

**Q.** What about the IC50 (IRAK4; read-out: IRAK4 IC50) of the same compound?
**A.** > 10000 nM

**Q.** What about the IC50 (IRAK1; read-out: IRAK1 IC50) of the same compound?
**A.** 67 nM

**Q.** What does the source list for C=CC(=O)Nc1cccc(C(=O)Nc2ccc(NC(=O)c3cccc(-c4cn[nH]c4)n3)cc2)c1 [JH-XIII-80-3, N-(4-(3-acrylamidobenzamido)phenyl)-6-(1H-pyrazol-4-yl)picolinamide]?
**A.** IC50 (IRAK4; Table 1, read-out: IC50 IRAK4): > 10000 nM; IC50 (IRAK4; read-out: IRAK4 IC50): > 10000 nM; IC50 (IRAK1; read-out: IRAK1 IC50): 22 nM

**Q.** For C=CC(=O)Nc1cccc(-c2cn(-c3ccc(NC(=O)c4cccc(-c5ccn[nH]5)n4)cc3)nn2)c1 [JH-XIII-96-2, N-(4-(4-(3-acrylamidophenyl)-1H-1,2,3-triazol-1-yl)phenyl)-6-(1H-pyrazol-5-yl)picolinamide], which IC50 (IRAK4; Table 1, read-out: IC50 IRAK4) is on record?
**A.** > 10000 nM

**Q.** And the IC50 (IRAK4; read-out: IRAK4 IC50)?
**A.** > 10000 nM

**Q.** What about the IC50 (IRAK1; read-out: IRAK1 IC50) of the same compound?
**A.** 40 nM

**Q.** Which IC50 (IRAK4; Table 1, read-out: IC50 IRAK4) does the source give for “N-(4-(4-acrylamidobenzamido)phenyl)-[2,3′-bipyridine]-6-carboxamide [JH-XIII-77]” here?
**A.** > 10000 nM

**Q.** What about the IC50 (IRAK4; read-out: IRAK4 IC50) of the same compound?
**A.** > 10000 nM

**Q.** What about the IC50 (IRAK1; read-out: IRAK1 IC50) of the same compound?
**A.** 80 nM
